Some test systems named below: CAKI-1 renal; EKVX NSCLC; COLO 205 colon; HL-60(TB) leukemia; NCI-H226 lung; IGROV1 ovarian; MDA-N; SK-MEL-5 melanoma; RPMI-8226 leukemia; MDA-MB-231 breast.
What all share (test): NCI anticancer screen, dose series, 48 h

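48-hour exposure; five concentrations; linearly interpolated endpoints. TGI: total growth inhibition.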 *1 amine or outer side, *2 acyl side, *3 side chain or, on linkers, in order; H or OH if unused. Where a SMILES comes first, the peptide text is derived from it. Bridges are numbered along the chain shown (N, C = ends). Roman numbers before positions name the chains, in order. [ ]: non-standard residue; d: D form. ξ: configuration not given here. X54 = N=C(N)NCCC[C@@H](NC(=N)CCCCCCC(=N)N[C@H](CCCNC(=N)N)C(=O)[*:2])C(=O)[*:1]; dIgl = N[C@@H](C(=O)O)C1Cc2ccccc2C1; Hyp = O=C(O)[C@@H]1C[C@@H](O)CN1; ξIgl = NC(C(=O)O)C1Cc2ccccc2C1; ξOic = O=C(O)C1CC2CCCCC2N1; ξR = N=C(N)NCCCC(N)C(=O)O; ξP = O=C(O)C1CCCN1; ξS = NC(CO)C(=O)O Bounds are passed on as bounds.

For `N#Cc1c(N)oc(-c2ccc([N+](=O)[O-])cc2)c1C#N`, the TGI is 54.7 µM in the assay on CAKI-1 renal; 59.6 µM in the assay with EKVX NSCLC; greater than 100 µM in the assay on COLO 205 colon; greater than 100 µM in the assay on HL-60(TB) leukemia; 46.5 µM in the assay on NCI-H226 lung; 42.4 µM in the assay on IGROV1 ovarian. The TGI in the assay with MDA-N is greater than 100 µM; in the assay with SK-MEL-5 melanoma it was 36.4 µM; with RPMI-8226 leukemia, greater than 100 µM; in the assay on MDA-MB-231 breast it was 64.3 µM.

For the compound `C=C(C)[C@@H](O)[C@H](O)C[C@H](C)C1CC[C@]2(C)C1=CC[C@@H]1[C@@]3(C)CC[C@@H](OC(C)=O)C(C)(C)[C@@H]3C[C@@H](OC3OC(COC(C)=O)C(O)C(O)C3O)[C@]12C` (some centres undefined), the TGI stood at 11.8 µM with CAKI-1 renal; 12.3 µM in the assay with EKVX NSCLC; 3.39 µM in the assay with COLO 205 colon; 4.2 µM with HL-60(TB) leukemia; 10.3 µM in the assay on NCI-H226 lung; 6.4 µM in the assay with IGROV1 ovarian. Moreover, the TGI came out at 8.55 µM in the assay on MDA-N, 3.73 µM with SK-MEL-5 melanoma, 4.43 µM in the assay on RPMI-8226 leukemia and 6.64 µM with MDA-MB-231 breast.

Consider `COC1=C[C@]2(CCC(=O)O2)[C@@H]2Cc3ccccc3[C@H](O)[C@@H]2C1=O`, for which the TGI was greater than 100 µM with CAKI-1 renal; greater than 100 µM with EKVX NSCLC; greater than 100 µM with COLO 205 colon; 77.6 µM in the assay on HL-60(TB) leukemia; greater than 100 µM with NCI-H226 lung; greater than 100 µM with IGROV1 ovarian. The TGI in the assay on MDA-N is 30.1 µM; with SK-MEL-5 melanoma it was 33.7 µM; with RPMI-8226 leukemia it was 38.5 µM; with MDA-MB-231 breast, greater than 100 µM.

`N=C(N)NCCCC(NC(=O)C1CC2CCCCC2N1C(=O)[C@H](NC(=O)C(CO)NC(=O)C(NC(=O)CNC(=O)[C@@H]1C[C@@H](O)CN1C(=O)C1CCCN1C(=O)C(CCCNC(=N)N)NC(=O)[C@@H](CCCNC(=N)N)NC(=N)CCCCCCC(=N)N[C@H](CCCNC(=N)N)C(=O)NC(CCCNC(=N)N)C(=O)N1CCCC1C(=O)N1C[C@H](O)C[C@H]1C(=O)NCC(=O)NC(C(=O)NC(CO)C(=O)N[C@@H](C(=O)N1C(C(=O)NC(CCCNC(=N)N)C(=O)O)CC2CCCCC21)C1Cc2ccccc2C1)C1Cc2ccccc2C1)C1Cc2ccccc2C1)C1Cc2ccccc2C1)C(=O)O` (some centres undefined) (I: [ξR][ξP][Hyp]G[ξIgl][ξS][dIgl][ξOic][ξR]-OH / II: [ξR][ξP][Hyp]G[ξIgl][ξS][dIgl][ξOic][ξR]-OH; linker I:N-II:N via X54): the TGI in the assay with CAKI-1 renal was 3.71 µM; in the assay with EKVX NSCLC, 3.67 µM; in the assay on COLO 205 colon, 3.28 µM; with HL-60(TB) leukemia, 0.409 µM; in the assay on IGROV1 ovarian, greater than 10 µM; in the assay on MDA-N, 5.23 µM. In addition, the TGI in the assay with SK-MEL-5 melanoma amounted to 3.62 µM; with RPMI-8226 leukemia, 4.48 µM; with MDA-MB-231 breast, 3.49 µM.

Consider `COc1cc(C2c3cc4c(cc3OC(NNc3ccccc3)C2C)OCO4)cc(OC)c1OC` (centres undefined), for which the TGI in the assay on CAKI-1 renal is greater than 73 µM; in the assay on EKVX NSCLC, 21.1 µM; in the assay with COLO 205 colon, 10.3 µM; in the assay on HL-60(TB) leukemia, 4.46 µM; in the assay on NCI-H226 lung, 6.92 µM; in the assay on IGROV1 ovarian it was greater than 100 µM. In addition, the TGI in the assay on MDA-N is 3.43 µM; in the assay with SK-MEL-5 melanoma, 21 µM; in the assay with RPMI-8226 leukemia, 31.8 µM; with MDA-MB-231 breast it was greater than 63.4 µM.

As for `CCC(=O)Nc1cccc(N=Cc2ccc(OC(=O)/C=C\c3ccccc3)cc2)c1`, the TGI in the assay with CAKI-1 renal, in the assay on EKVX NSCLC, with COLO 205 colon, in the assay on HL-60(TB) leukemia, in the assay on NCI-H226 lung and in the assay on IGROV1 ovarian was greater than 75 µM throughout. The TGI in the assay on MDA-N, in the assay with SK-MEL-5 melanoma, in the assay on RPMI-8226 leukemia and in the assay with MDA-MB-231 breast was greater than 75 µM each time.

On to `O=C1/C(=C/c2ccc(O)cc2)CCCC1CN1CCCCC1` (centres undefined), for which the TGI in the assay with CAKI-1 renal was determined as 8.3 µM; with EKVX NSCLC, 7.8 µM; in the assay with COLO 205 colon, 4.02 µM; in the assay on HL-60(TB) leukemia, 0.924 µM; in the assay with NCI-H226 lung, 18.2 µM; with IGROV1 ovarian it was 3.8 µM. Further, the TGI is 10.8 µM in the assay on MDA-N, 17.8 µM with SK-MEL-5 melanoma, greater than 100 µM with RPMI-8226 leukemia and 4.43 µM in the assay on MDA-MB-231 breast.

As to `Fc1ccc(-c2sc(-c3ccsc3)cc2Cc2ccsc2)cc1`, the TGI in the assay with CAKI-1 renal, in the assay with EKVX NSCLC, in the assay with COLO 205 colon, in the assay with HL-60(TB) leukemia, in the assay with IGROV1 ovarian and in the assay on MDA-N was greater than 10 µM each time. Besides, the TGI with SK-MEL-5 melanoma, with RPMI-8226 leukemia and in the assay on MDA-MB-231 breast was greater than 10 µM each time.

For the compound `COC(=O)Nc1nc2ccc(S(=O)(=O)Nc3ccccn3)cc2[nH]1`, the TGI was greater than 100 µM with CAKI-1 renal; greater than 100 µM with EKVX NSCLC; greater than 100 µM in the assay with COLO 205 colon; 34.8 µM in the assay on HL-60(TB) leukemia; greater than 100 µM in the assay with NCI-H226 lung; greater than 100 µM in the assay on IGROV1 ovarian. Further, the TGI was greater than 100 µM in the assay with MDA-N, greater than 100 µM in the assay on SK-MEL-5 melanoma, 40.6 µM in the assay on RPMI-8226 leukemia and greater than 100 µM in the assay with MDA-MB-231 breast.

Regarding `COC(=O)c1c(O)ccc2c1c1cc3ccccc3cc1n2Cc1cc(OC)cc(OC)c1`, the TGI is greater than 28.4 µM in the assay with CAKI-1 renal; greater than 100 µM with EKVX NSCLC; greater than 36.1 µM in the assay on COLO 205 colon; 30.6 µM in the assay with HL-60(TB) leukemia; greater than 100 µM in the assay on NCI-H226 lung; 1.69 µM with IGROV1 ovarian. The TGI was 3.72 µM in the assay on MDA-N, 18.5 µM in the assay with SK-MEL-5 melanoma, greater than 26.3 µM in the assay with RPMI-8226 leukemia and greater than 100 µM in the assay with MDA-MB-231 breast.

As to `Cc1ccc(S(=O)(=O)N2CCC[C@@H]2C(=O)O[C@@H]2CCC3CC=CC32)cc1` (some centres undefined), the TGI with EKVX NSCLC was greater than 100 µM; in the assay on COLO 205 colon, 31.2 µM; in the assay with HL-60(TB) leukemia it was 64.2 µM; in the assay with NCI-H226 lung, 68.3 µM; with IGROV1 ovarian, greater than 100 µM; with MDA-N, 78.6 µM. Besides, the results for the TGI with SK-MEL-5 melanoma, in the assay on RPMI-8226 leukemia and with MDA-MB-231 breast were 29.2 µM, 61.3 µM and greater than 100 µM, respectively.

`CC(=O)OCC1OC(N2C(=O)NC(=O)C3C=C4CCCCC4=CC32)CC1OC(C)=O` (centres undefined): the TGI in the assay with EKVX NSCLC, in the assay on HL-60(TB) leukemia, in the assay with NCI-H226 lung, in the assay with IGROV1 ovarian, in the assay on MDA-N and in the assay with RPMI-8226 leukemia was greater than 100 µM each time. The compound also showed a TGI in the assay with MDA-MB-231 breast greater than 100 µM.

(Values after PubChem BioAssay (NCI).)
